Measurements from PubChem BioAssay AID270 (DTP/NCI, 2004).
Several values for one entry are separate records, joined by “and”; a condition that tells them apart may be missing. Identical values can stand only once. Inconclusive results are not listed.

Test system: BDF1 mice, s.c. Lewis lung carcinoma, T/C %
Assay: NCI In Vivo Anticancer Drug Screen. Data for tumor model Lewis Lung Carcinoma (subcutaneous) in B6D2F1 (BDF1) mice
In short: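 Tumor-bearing mice were treated with test compound, and either survival or tumor size was recorded. Values are the treated-group measurement divided by that of the vehicle-treated control group.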

COC1C(O)CC(OC2CC(OC3CC(O[C@@H]4C(=O)c5c(cc6cc(OC7CC(OC8CC(O)C(O)C(C)O8)C(O)C(C)O7)c(C)c(O)c6c5O)C[C@H]4[C@H](OC)C(=O)[C@@H](O)[C@@H](C)O)OC(C)C3O)OC(C)C2O)OC1C (stereo not given in full)
T/C (endpoint: median survival time, dose: 37.5 micrograms/kg/injection, schedule: Q01DX009 (ip), vehicle: water, higher = longer survival): 110 % of control | T/C (endpoint: median survival time, dose: 75.0 micrograms/kg/injection, schedule: Q01DX009 (ip), vehicle: water, higher = longer survival): 118 % of control | T/C (endpoint: median survival time, dose: 150.0 micrograms/kg/injection, schedule: Q01DX009 (ip), vehicle: water, higher = longer survival): 86 % of control

CN(C)/N=N/c1nc[nH]c1C(N)=O
T/C (endpoint: mean tumor weight, dose: 12.5 mg/kg/injection, schedule: Q01DX011 (ip), vehicle: saline, higher = larger tumour): 76 % of control | T/C (endpoint: mean tumor weight, dose: 25.0 mg/kg/injection, schedule: Q01DX011 (ip), vehicle: saline, higher = larger tumour): 108 % of control | T/C (endpoint: mean tumor weight, dose: 48.0 mg/kg/injection, schedule: Q01DX011 (ip), vehicle: carboxymethylcellulose (CMC), higher = larger tumour): 111 % of control | T/C (endpoint: mean tumor weight, dose: 50.0 mg/kg/injection, schedule: Q01DX011 (ip), vehicle: saline, higher = larger tumour): 80 % of control | T/C (endpoint: mean tumor weight, dose: 95.0 mg/kg/injection, schedule: Q01DX011 (ip), vehicle: carboxymethylcellulose (CMC), higher = larger tumour): 117 % of control | T/C (endpoint: mean tumor weight, dose: 100.0 mg/kg/injection, schedule: Q01DX010 (ip), vehicle: saline, higher = larger tumour): 44 % of control | T/C (endpoint: mean tumor weight, dose: 100.0 mg/kg/injection, schedule: Q01DX011 (ip), vehicle: saline, higher = larger tumour): 42 % of control | T/C (endpoint: mean tumor weight, dose: 143.0 mg/kg/injection, schedule: Q01DX011 (ip), vehicle: carboxymethylcellulose (CMC), higher = larger tumour): 78 % of control | T/C (endpoint: mean tumor weight, dose: 200.0 mg/kg/injection, schedule: Q01DX010 (ip), vehicle: saline, higher = larger tumour): 51 % of control | T/C (endpoint: median survival time, dose: 27.0 mg/kg/injection, schedule: Q01DX015 (ip), vehicle: carboxymethylcellulose (CMC), higher = longer survival): 94 % of control and 122 % of control | T/C (endpoint: median survival time, dose: 37.5 mg/kg/injection, schedule: Q01DX009 (ip), vehicle: Klucel (hydroxypropylcellulose) (HPC), higher = longer survival): 97 % of control and 116 % of control | T/C (endpoint: median survival time, dose: 37.5 mg/kg/injection, schedule: Q01DX009 (ip), vehicle: saline with Tween-80, higher = longer survival): 106 % of control and 118 % of control | T/C (endpoint: median survival time, dose: 40.0 mg/kg/injection, schedule: Q01DX015 (ip), vehicle: carboxymethylcellulose (CMC), higher = longer survival): 92 % of control | T/C (endpoint: median survival time, dose: 60.0 mg/kg/injection, schedule: Q01DX015 (ip), vehicle: carboxymethylcellulose (CMC), higher = longer survival): 102 % of control | T/C (endpoint: median survival time, dose: 75.0 mg/kg/injection, schedule: Q01DX009 (ip), vehicle: Klucel (hydroxypropylcellulose) (HPC), higher = longer survival): 110 % of control | T/C (endpoint: median survival time, dose: 75.0 mg/kg/injection, schedule: Q01DX009 (ip), vehicle: saline with Tween-80, higher = longer survival): 118 % of control | T/C (endpoint: median survival time, dose: 100.0 mg/kg/injection, schedule: Q01DX009 (ip), vehicle: saline with Tween-80, higher = longer survival): 118 % of control | T/C (endpoint: median survival time, dose: 150.0 mg/kg/injection, schedule: Q01DX009 (ip), vehicle: Klucel (hydroxypropylcellulose) (HPC), higher = longer survival): 122 % of control | T/C (endpoint: median survival time, dose: 150.0 mg/kg/injection, schedule: Q01DX009 (ip), vehicle: saline with Tween-80, higher = longer survival): 92 % of control | T/C (endpoint: median survival time, dose: 200.0 mg/kg/injection, schedule: Q01DX009 (ip), vehicle: saline with Tween-80, higher = longer survival): 113 % of control | T/C (endpoint: median survival time, dose: 300.0 mg/kg/injection, schedule: Q01DX009 (ip), vehicle: Klucel (hydroxypropylcellulose) (HPC), higher = longer survival): 95 % of control | T/C (endpoint: median survival time, dose: 450.0 mg/kg/injection, schedule: Q01DX001 (ip), vehicle: carboxymethylcellulose (CMC), higher = longer survival): 93 % of control | T/C (endpoint: median survival time, dose: 670.0 mg/kg/injection, schedule: Q01DX001 (ip), vehicle: carboxymethylcellulose (CMC), higher = longer survival): 96 % of control | T/C (endpoint: median tumor weight (est.), dose: 23.7 mg/kg/injection, schedule: Q01DX009 (ip), vehicle: carboxymethylcellulose (CMC), higher = larger tumour): 102 % of control | T/C (endpoint: median tumor weight (est.), dose: 24.0 mg/kg/injection, schedule: Q01DX009 (ip), vehicle: carboxymethylcellulose (CMC), higher = larger tumour): 74 % of control and 77 % of control | T/C (endpoint: median tumor weight (est.), dose: 37.5 mg/kg/injection, schedule: Q01DX009 (ip), vehicle: saline with Tween-80, higher = larger tumour): 90 % of control | T/C (endpoint: median tumor weight (est.), dose: 47.0 mg/kg/injection, schedule: Q01DX009 (ip), vehicle: carboxymethylcellulose (CMC), higher = larger tumour): 99 % of control | T/C (endpoint: median tumor weight (est.), dose: 47.5 mg/kg/injection, schedule: Q01DX009 (ip), vehicle: carboxymethylcellulose (CMC), higher = larger tumour): 50 % of control | T/C (endpoint: median tumor weight (est.), dose: 48.0 mg/kg/injection, schedule: Q01DX009 (ip), vehicle: carboxymethylcellulose (CMC), higher = larger tumour): 70 % of control | T/C (endpoint: median tumor weight (est.), dose: 75.0 mg/kg/injection, schedule: Q01DX009 (ip), vehicle: saline with Tween-80, higher = larger tumour): 73 % of control | T/C (endpoint: median tumor weight (est.), dose: 95.0 mg/kg/injection, schedule: Q01DX009 (ip), vehicle: carboxymethylcellulose (CMC), higher = larger tumour): 79 % of control and 82 % of control and 99 % of control | T/C (endpoint: median tumor weight (est.), dose: 150.0 mg/kg/injection, schedule: Q01DX009 (ip), vehicle: saline with Tween-80, higher = larger tumour): 70 % of control | T/C (endpoint: median tumor weight (est.), dose: 300.0 mg/kg/injection, schedule: Q01DX009 (ip), vehicle: saline with Tween-80, higher = larger tumour): 36 % of control

CC(=O)OC1C=CC(=O)OC1C1OC1C (stereo not given)
T/C (endpoint: mean tumor weight, dose: 4.0 mg/kg/injection, schedule: Q01DX011 (ip), vehicle: saline, higher = larger tumour): 105 % of control | T/C (endpoint: mean tumor weight, dose: 6.0 mg/kg/injection, schedule: Q01DX011 (ip), vehicle: saline, higher = larger tumour): 81 % of control | T/C (endpoint: mean tumor weight, dose: 9.0 mg/kg/injection, schedule: Q01DX011 (ip), vehicle: saline, higher = larger tumour): 91 % of control | T/C (endpoint: mean tumor weight, dose: 19.0 mg/kg/injection, schedule: Q01DX011 (ip), vehicle: saline, higher = larger tumour): 62 % of control
